One experiment addresses T1, IDH2 R140Q (Homo sapiens, UniProt P48735, R140Q).
T1 sequence (P48735 40-452 R140Q): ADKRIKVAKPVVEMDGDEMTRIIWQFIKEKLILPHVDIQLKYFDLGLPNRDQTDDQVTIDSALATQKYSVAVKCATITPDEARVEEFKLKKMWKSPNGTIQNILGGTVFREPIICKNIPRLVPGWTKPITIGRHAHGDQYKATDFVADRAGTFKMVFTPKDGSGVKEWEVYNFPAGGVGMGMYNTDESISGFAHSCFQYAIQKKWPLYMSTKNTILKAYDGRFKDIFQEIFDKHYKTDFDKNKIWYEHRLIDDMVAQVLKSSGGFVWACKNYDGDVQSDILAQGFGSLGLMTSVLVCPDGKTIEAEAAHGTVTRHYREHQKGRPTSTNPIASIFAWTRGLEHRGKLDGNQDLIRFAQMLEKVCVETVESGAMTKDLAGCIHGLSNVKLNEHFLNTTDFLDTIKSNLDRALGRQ
The experiment is described as follows: IDH2 R140Q enzymatic assay (NADPH cofactor depletion, diaphorase/resazurin readout). The experiment is classed as biochemical. Details: key to Enz R140Q: values indicated as “A” represent an IC50 of less than 50 nM; values indicated as “B” represent an IC50 of between 50 nM and 100 nM; values indicated as “C” represent an IC50 of greater than 100 nM; values indicated as “D” represent that the compound was either inactive or not tested in that particular assay. The following applies: IDH2 R140Q enzyme, 16 hours preincubation, class symbols; for IC50: read-out: Enz R140Q. On the procedure:
Compounds are assayed for IDH2 R172K inhibitory activity through a cofactor depletion assay. […] The reaction is terminated by the addition of a second enzyme, diaphorase, and a corresponding substrate, resazurin. Diaphorase reduces resazurin to the highly fluorescent resorufin with the concomitant oxidation of NADPH to NADP, both halting the IDH2 reaction by depleting the available cofactor pool and facilitating quantitation of the amount of cofactor remaining after a specific time period through quantitative production of an easily detected fluorophore.
Specifically, into each of 12 wells of a 384-well plate, 1 μl of 100× compound dilution series is placed, followed by the addition of 40 μl of buffer (50 mM potassium phosphate (K2HPO4), pH 7.5; 150 mM NaCl; 10 mM MgCl2, 10% glycerol, 0.05% bovine serum albumin, 2 mM beta-mercaptoethanol) containing 1.25 μg/ml IDH2 R172K. The test compound is then incubated for 16 hours at room temperature with the enzyme; before starting the IDH2 reaction with the addition of 10 μl of substrate mix containing 50 μM NADPH and 6.3 mM α-KG in the buffer described above. After a further one hour of incubation at room temperature, the reaction is halted and the remaining NADPH measured through conversion of resazurin to resorufin by the addition of 25 μl Stop Mix (36 μg/ml diaphorase enzyme and 60 μM resazurin; in buffer). After one minute of incubation the plate is read on a plate reader at Ex544/Em590.
For determination of the inhibitory potency of compounds against IDH2 R140Q in an assay format similar to the above, a similar procedure is performed, except that the final testing concentration is 0.25 μg/ml IDH2 R140Q protein, 4 μM NADPH and 1.6 mM α-KG.
For determination of the inhibitory potency of compounds against IDH2 R140Q in a high throughput screening format, a similar procedure is performed, except that 0.25 μg/ml IDH2 R140Q protein was utilized in the preincubation step, and the reaction is started with the addition of 4 μM NADPH and 8 μM α-KG.

Experiment [1] relates to U87MG pLVX-IDH2 R140Q-neo cells. Nature of the experiment: U87MG pLVX-IDH2 R140Q-neo cell based assay (2-HG in media by LC-MS). Details: key to Cell R140Q: values indicated as “A” represent an IC50 of less than 50 nM; values indicated as “B” represent an IC50 of between 50 nM and 100 nM; values indicated as “C” represent an IC50 of greater than 100 nM; values indicated as “D” represent that the compound was either inactive or not tested in that particular assay. As to conditions: 2-HG at 48 hours, class symbols; for IC50: Homo sapiens, U-87 MG. The protocol:
U87MG pLVX-IDH2 R140Q-neo Cell Based Assay.
U87MG pLVX-IDH2 R140Q-neo cells are grown in T125 flasks in DMEM containing 10% FBS, 1× penicillin/streptomycin and 500 μg/mL G418. They are harvested by trypsin and seeded into 96 well white bottom plates at a density of 5000 cell/well in 100 μl/well in DMEM with 10% FBS. No cells are plated in columns 1 and 12. Cells are incubated overnight at 37° C. in 5% CO2. The next day compounds are made up at 2x concentration and 100 ul are added to each cell well. The final concentration of DMSO is 0.2% and the DMSO control wells are plated in row G. The plates are then placed in the incubator for 48 hours. At 48 hours, 100 ul of media is removed from each well and analyzed by LC-MS for 2-HG concentrations. The cell plate is placed back in the incubator for another 24 hours. At 72 hours post compound addition, 10 mL/plate of Promega Cell Titer Glo reagent is thawed and mixed. The cell plate is removed from the incubator and allowed to equilibrate to room temperature. Then 100 ul of reagent is added to each well of media. The cell plate is then placed on an orbital shaker for 10 minutes and then allowed to sit at room temperature for 20 minutes. The plate is then read for luminescence with an integration time of 500 ms to determine compound effects on growth inhibition.

SMILES strings stand for the structures.

As to `CC(C)Nc1cc(Nc2ccnc(C(F)(F)F)c2)nc(-c2cccc(C(F)(F)F)n2)n1` [Compound 706], the IC50 (at IDH2 R140Q; in experiment [1]) was under 50 nM each time.
Regarding `CC(C)(C)Nc1cc(Nc2cc(C(F)(F)F)ncn2)nc(-c2cccc(C(F)(F)F)n2)n1` [Compound 723], the IC50 on IDH2 R140Q was 50 to 100 nM. Further, the “Cell R140Q” value in experiment [1] is on record as “D”.
Take `CC(C)Nc1nc(Nc2ccnc(C(F)(F)F)c2)cc(-c2cccc(C(F)(F)F)n2)n1` [Compound 738]: the IC50 is under 50 nM on IDH2 R140Q and 50 to 100 nM in experiment [1].
For the compound `N#CC1(c2ccnc(Nc3cc(NCC4CC4)nc(-c4cccc(C(F)(F)F)n4)n3)c2)CC1` [Compound 719], the IC50 (at IDH2 R140Q; in experiment [1]) was under 50 nM each time.
As to `CC(C)CC(=O)Nc1cc(Nc2ccccc2)nc(-c2ccccc2)n1` [Compound 701], the “Enz R140Q” value on IDH2 R140Q was “D”. This compound also registered an IC50 in experiment [1] of over 100 nM.
For `CC(C)Nc1cc(Nc2ccccn2)nc(-c2cccc(C(F)(F)F)n2)n1` [Compound 704], the IC50 (on IDH2 R140Q; in experiment [1]) was under 50 nM in each case.
With `CC(C)(O)CNc1cc(Nc2ccccn2)nc(-c2cccc(C(F)(F)F)n2)n1` [Compound 707], the IC50 (on IDH2 R140Q; in experiment [1]) was over 100 nM in each case.
For the compound `CC(C)Nc1cc(-c2cccc(C(F)(F)F)n2)nc(Nc2ccnc(C(F)(F)F)c2)n1` [Compound 739], the IC50 at IDH2 R140Q was under 50 nM; in experiment [1], over 100 nM.
For `CC(C)Nc1cc(Nc2cc(C3(C#N)CC3)ccn2)nc(-c2cccc(C(F)(F)F)n2)n1` [Compound 720], the IC50 (on IDH2 R140Q; in experiment [1]) was under 50 nM each time.
For the compound `CC(C)(C)Nc1cc(Nc2cc(C3(C#N)CC3)ccn2)nc(-c2cccc(C(F)(F)F)n2)n1` [Compound 721], the IC50 at IDH2 R140Q was 50 to 100 nM; in experiment [1], under 50 nM.
For `CC(C)C(=O)Nc1cc(-c2ccccc2)nc(Nc2ccccc2)n1` [Compound 736], at IDH2 R140Q, the “Enz R140Q” value is “D”. In addition, the IC50 in experiment [1] is over 100 nM.
For the compound `CC(C)Nc1cc(Nc2cc(C#N)ccn2)nc(-c2cccc(C(F)(F)F)n2)n1` [Compound 712], the IC50 (at IDH2 R140Q; in experiment [1]) was under 50 nM throughout.
Regarding `COc1ccc(CNc2cc(Nc3ccnc(C(F)(F)F)c3)nc(-c3cccc(C(F)(F)F)n3)n2)cc1` [Compound 727], at IDH2 R140Q, the IC50 lay in the range of 50 to 100 nM. Moreover, the “Cell R140Q” value in experiment [1] is given as “D”.
As for `CC(C)Nc1cc(Nc2cc(C(C)(F)F)ccn2)nc(-c2cccc(C(F)(F)F)n2)n1` [Compound 713], the IC50 (on IDH2 R140Q; in experiment [1]) was under 50 nM in each case.
Turning to `FC(F)(F)c1ccnc(Nc2cc(NCC3CC3)nc(-c3cccc(C(F)(F)F)n3)n2)c1` [Compound 715], the IC50 (on IDH2 R140Q; in experiment [1]) was under 50 nM throughout.
For `CC(C)Nc1cc(-c2ccccc2)nc(Nc2ccccc2)n1` [Compound 730], the IC50 (at IDH2 R140Q; in experiment [1]) was 50 to 100 nM in each case.
For `CC(C)C(=O)Nc1cc(Nc2ccccc2)nc(-c2ccccc2)n1` [Compound 702], the IC50 was under 50 nM at IDH2 R140Q and over 100 nM in experiment [1].
In the same order, the values of `CC(C)Nc1cc(Nc2cc(Cl)ccn2)nc(-c2cccc(C(F)(F)F)n2)n1` [Compound 705] are under 50 nM and under 50 nM.
Turning to `Nc1cc(Nc2cc(C(F)(F)F)ccn2)nc(-c2cccc(C(F)(F)F)n2)n1` [Compound 722], at IDH2 R140Q, the IC50 was over 100 nM. For the same compound, in experiment [1], the “Cell R140Q” value is on record as “D”.
Consider `CC(C)(O)CNc1cc(Nc2cc(C(F)(F)F)ccn2)nc(-c2cccc(C(F)(F)F)n2)n1` [Compound 718], for which the IC50 (on IDH2 R140Q; in experiment [1]) was under 50 nM in each case.
For the compound `CC(C)Nc1cc(Nc2cccc(Cl)n2)nc(-c2cccc(C(F)(F)F)n2)n1` [Compound 710], the IC50 (at IDH2 R140Q; in experiment [1]) was under 50 nM each time.
Take `CC(C)(CO)Nc1cc(Nc2cc(C(F)(F)F)ncn2)nc(-c2cccc(C(F)(F)F)n2)n1` [Compound 725]: the IC50 on IDH2 R140Q is 50 to 100 nM. In addition, the “Cell R140Q” value in experiment [1] is reported as “D”.
In the same order, the values of `Nc1cc(Nc2cc(C(F)(F)F)ncn2)nc(-c2cccc(C(F)(F)F)n2)n1` [Compound 726] are over 100 nM and “D”.
`O=C(Cc1ccccc1)Nc1nc(Nc2ccccc2)cc(-c2ccccc2)n1` [Compound 734]: the “Enz R140Q” value on IDH2 R140Q was “D”. The compound further showed an IC50 in experiment [1] of over 100 nM.
Turning to `CC(C)Nc1cc(Nc2cc(C(F)(F)F)ncn2)nc(-c2cccc(C(F)(F)F)n2)n1` [Compound 717], the IC50 (on IDH2 R140Q; in experiment [1]) was under 50 nM each time.
Regarding `CC(C)OC(=O)Nc1cc(Nc2ccccc2)nc(-c2ccccc2)n1` [Compound 703], the “Enz R140Q” value on IDH2 R140Q is “D”. Moreover, the IC50 in experiment [1] was over 100 nM.
As to `Nc1cc(Nc2ccnc(C(F)(F)F)c2)nc(-c2cccc(C(F)(F)F)n2)n1` [Compound 728], the “Enz R140Q” value at IDH2 R140Q was “D”. Also, the “Cell R140Q” value in experiment [1] was “D”.
Take `CC(C)Nc1nc(Nc2ccccc2)cc(-c2ccccc2)n1` [Compound 729]: the “Enz R140Q” value at IDH2 R140Q was “D”. Further, the “Cell R140Q” value in experiment [1] is recorded as “D”.
For `CC(C)CC(=O)Nc1cc(-c2ccccc2)nc(Nc2ccccc2)n1` [Compound 735], the IC50 (at IDH2 R140Q; in experiment [1]) was over 100 nM in each case.
Take `COc1ccc(CNc2cc(Nc3cc(C(F)(F)F)ncn3)nc(-c3cccc(C(F)(F)F)n3)n2)cc1` [Compound 724]: the IC50 on IDH2 R140Q was under 50 nM. The “Cell R140Q” value in experiment [1] was “D”.
With `CC(C)OC(=O)Nc1cc(-c2ccccc2)nc(Nc2ccccc2)n1` [Compound 737], on IDH2 R140Q, the “Enz R140Q” value was “D”. Besides, the “Cell R140Q” value in experiment [1] is given as “D”.
Take `CC(C)Nc1cc(Nc2ccccc2)nc(-c2cccc(C(F)(F)F)n2)n1` [Compound 708]: the IC50 on IDH2 R140Q was under 50 nM; in experiment [1], 50 to 100 nM.
In the same order, the values of `CC(C)(C)Nc1cc(Nc2cc(C(F)(F)F)ccn2)nc(-c2cccc(C(F)(F)F)n2)n1` [Compound 716] are 50 to 100 nM and under 50 nM.
Taken in the same sequence, the figures for `CC(C)(O)CNc1cc(Nc2ccnc(C(F)(F)F)c2)nc(-c2cccc(C(F)(F)F)n2)n1` [Compound 709] were over 100 nM and over 100 nM.
In the same order, the values of `CC(C)Nc1cc(Nc2cc(C(F)F)ccn2)nc(-c2cccc(C(F)(F)F)n2)n1` [Compound 714] are under 50 nM and under 50 nM.
On to `CC(C)Nc1cc(Nc2ccccc2)nc(-c2ccccc2)n1` [Compound 700], for which the IC50 on IDH2 R140Q is 50 to 100 nM; in experiment [1], over 100 nM.
Taken in the same sequence, the figures for `CC(C)Nc1cc(Nc2cc(C(F)(F)F)ccn2)nc(-c2cccc(C(F)(F)F)n2)n1` [Compound 711] were under 50 nM and under 50 nM.

Values taken from patent US10376510B2, “2,4- or 4,6-diaminopyrimidine compounds as IDH2 mutants inhibitors for the treatment of cancer” (AGIOS PHARMACEUTICALS, INC., priority 2013, dated 2019).
